Results taken from patent publication EP0442769A2 (priority 1990, dated 1991).
Read-outs that look alike come from different tables or passages of the source.

Assays:
Stability in fresh serum = assay type: in vitro ADME; design: key to Stabilité dans sérum frais 4°C / Stabilité dans sérum frais 37°C: + : stable.; *a: * : stabilité dans le sérum frais à 37°C au bout de 24h : on ne retrouve que 8 à 12%, 78% et 65% de la quantité de départ dans le sérum respectivement pour (a), (b) et (c).; *b: * : stabilité dans le sérum frais à 37°C au bout de 24h : on ne retrouve que 8 à 12%, 78% et 65% de la quantité de départ dans le sérum respectivement pour (a), (b) et (c).; *c: * : stabilité dans le sérum frais à 37°C au bout de 24h : on ne retrouve que 8 à 12%, 78% et 65% de la quantité de départ dans le sérum respectivement pour (a), (b) et (c); settings: for Stabilité dans sérum frais 37°C / remaining at 24 h: * = fraction of starting quantity found after 24h, 37°C; for remaining at 24 h: read-out: Stabilité dans sérum frais 37°C
Source text: (§1) Ces composés ont été également testés pour leur absorption membranaire et stabilité érythrocitaire et plasmatique.

sites opioides de type k = target: T1, sites opioides de type k (Cavia porcellus, UniProt P41144); experiment: [3H]diprenorphine competition binding, crude membrane fraction of guinea pig cerebellum; design: species or system cobaye; settings: guinea pig cerebellum membranes; for IC50: [3H]diprenorphine 0,3 nM, 1 h at 25°C, (n) in brackets, read-out: I50κ (concentration inhibitrice 50); for Ki: calculated from the measured CI.50, read-out: KIκ (constante de dissociation apparente du composé testé)
T1 construct: fraction membranaire brute obtenue à partir de tissu frais (cervelet de lapin, cervelet de cobaye); from tissue; host or cells: guinea pig cerebellum (tricolour guinea pigs), crude membrane fraction
Experimental: (§2) Les animaux utilisés sont des lapins néo-zélandais d'environ 1500 g et des cobayes tricolores d'environ 300 g.
(§3) La préparation utilisée est une fraction membranaire brute obtenue à partir de tissu frais (cervelet de lapin, cervelet de cobaye) par une méthode standard d'homogénéisation et de centrifugation différentielle. La suspension finale est en tampon tris-HCl (50 mM, pH 7,4) et contient environ 5 mg de protéine par ml.
(§4) [15,16(n)-³H] diprenorphine à 25-30 CI/mmol (Amersham International plc, Amersham, Angleterre).
(§5) Radioligand (0,3 pmol) de [³H] diprenorphine et fraction membranaire brute (0,25 mg de protéine) sont incubés pendant 1 heure à 25°C dans un volume final de 1,0 ml en tampon Tris-HCl (50 mM, pH 7,4) : • (i) en absence de toute drogue compétitrice , • (ii) en présence de 12 concentrations croissantes de la nouvelle drogue et, • (iii) en présence de 10 µmol/l de diprenorphine non radioactive.
(§6) Le contenu de chaque tube est ensuite rapidement filtré (sous vide) sur disques de fibre de verre (Whatman GF/B) disposés sur un jeu de rampes de filtration Millipore modèle 1225. Les filtres sont rincés avec 2 x 3 ml de tampon froid (O-2°C) puis séchés sous une lampe IR pendant 15 minutes. La radioactivité de chaque filtre, dans 3 ml de cocktail Ready-sol MB (Beckman) est comptée avec un compteur à scintillation liquide Kontron modèle MR 300.
(§7) A partir des paramètres mesurés, il est ensuite calculé les différentes constantes Kx pour les sites considérés.
(§8) Ces valeurs ont été calculées à partir des valeurs mesurées des concentrations CI.50 de drogue inhibant de 50 % la liaison à l'équilibre de (3H) diprenorphine utilisée à la concentration fixe de 0,3 nM.

sites opioides de type µ = target: T2, sites opioides de type µ (Oryctolagus cuniculus, UniProt G1TAQ8); experiment: [3H]diprenorphine competition binding, crude membrane fraction of rabbit cerebellum; design: species or system lapin
T2 construct: fraction membranaire brute obtenue à partir de tissu frais (cervelet de lapin, cervelet de cobaye); from tissue; host or cells: rabbit cerebellum (New Zealand rabbits), crude membrane fraction
Experimental: as §2, §3, §4, §5, §6, §7, §8

Stability in haemolysate = assay type: in vitro ADME; design: key: + : stable.; *a: * : stabilité dans le sérum frais à 37°C au bout de 24h : on ne retrouve que 8 à 12%, 78% et 65% de la quantité de départ dans le sérum respectivement pour (a), (b) et (c).; *b: * : stabilité dans le sérum frais à 37°C au bout de 24h : on ne retrouve que 8 à 12%, 78% et 65% de la quantité de départ dans le sérum respectivement pour (a), (b) et (c).; *c: * : stabilité dans le sérum frais à 37°C au bout de 24h : on ne retrouve que 8 à 12%, 78% et 65% de la quantité de départ dans le sérum respectivement pour (a), (b) et (c)
Source text: as §1

membrane érythrocytaire = experiment: Membrane adsorption at haematocrit 45%; assay type: in vitro ADME
Source text: as §1

GR chargés = experiment: Extracellular leak from loaded red blood cells, 24 h incubation; assay type: in vitro ADME
Source text: as §1

[1] = [3H]diprenorphine 0,3 nM, rabbit cerebellum membranes, 1 h at 25°C, (n) in brackets, read-out: I50µ (concentration inhibitrice 50)
[2] = calculated from the measured CI.50, rabbit cerebellum membranes, read-out: KIµ (constante de dissociation apparente du composé testé)

Compound	Stabilité dans sérum frais 4°C (Stability in fresh serum)	Stabilité dans sérum frais 37°C (Stability in fresh serum)	IC50 (sites opioides de type k)	Ki (sites opioides de type k)	IC50 (sites opioides de type µ; [1])	Ki (sites opioides de type µ; [2])	Stabilité dans hémolysat 4°C (Stability in haemolysate)	Stabilité dans hémolysat 37°C (Stability in haemolysate)	Adsorption membranaire à Hte 45% (membrane érythrocytaire)	GR chargés : Incubation 24h Fuite extra-cellulaire 4°C (GR chargés)	GR chargés : Incubation 24h Fuite extra-cellulaire 37°C (GR chargés)	affinité apparente pour les sites opioïdes µ (sites opioides de type µ; result in words)	remaining at 24 h (Stability in fresh serum)	IC50 (sites opioides de type µ)	Ki (sites opioides de type µ)
C=CCN1CC[C@]23c4c5ccc(OS(=O)(=O)O)c4O[C@H]2C(=O)CC[C@@]3(OS(=O)(=O)O)[C@H]1C5 [naloxone-3,14-disulfate]	+	+	> 100000 nM	> 25000 nM	20800 nM	5200 nM	+	+	34%	5%	50%				
C=CCN1CC[C@]23c4c5ccc(OP(=O)(O)OC)c4O[C@H]2C(=O)CC[C@@]3(O)[C@H]1C5 [naloxone-3-phosphate(OMe)]	+	+			1200 nM	260 nM	+	+	10%	6%	40%				
C=CCN1CC[C@]23c4c5ccc(OP(=O)(O)O)c4O[C@H]2C(=O)CC[C@@]3(O)[C@H]1C5 [naloxone-3-phosphate]	+	+			3.5 ± 0.3 nM	0.9 nM	+	+	0%	1%	12%	activité légèrement plus élevée que la naloxone			
C=CCN1CC[C@]23c4c5ccc(OS(=O)(=O)O)c4O[C@H]2C(=O)CC[C@@]3(O)[C@H]1C5 [naloxone-3-sulfate]					4300 nM	1070 nM									
C=CCN1CC[C@]23c4c5ccc(OP(=O)(O)OP(=O)(O)OP(=O)(O)O)c4O[C@H]2C(=O)CC[C@@]3(O)[C@H]1C5 [naloxone-3-triphopshate]	+		106 ± 15 nM	27 nM	21 ± 2 nM	5.2 nM	+	+	22%	0%	0%		78%		
O=C1CC[C@@]2(O)[C@H]3Cc4ccc(O)c5c4[C@@]2(CCN3CC2CC2)[C@H]1O5 [naltrexone, reference compound]														1.2 ± 0.2 nM	0.3 nM
O=C1CC[C@@]2(OS(=O)(=O)O)[C@H]3Cc4ccc(OS(=O)(=O)O)c5c4[C@@]2(CCN3CC2CC2)[C@H]1O5 [naltrexone-3,14-disulfate]	+	+	39000 nM	9700 nM	7850 nM	1960 nM	+	+	40%	15%	70%				
COP(=O)(O)Oc1ccc2c3c1O[C@H]1C(=O)CC[C@@]4(O)[C@@H](C2)N(CC2CC2)CC[C@]314 [naltrexone-3-phosphate(OMe)]	+	+	270 ± 35 nM	68 nM	130 ± 9 nM	33 nM	+	+	10%	5%	40%				
O=C1CC[C@@]2(O)[C@H]3Cc4ccc(OP(=O)(O)O)c5c4[C@@]2(CCN3CC2CC2)[C@H]1O5 [naltrexone-3-phosphate]	+		30 ± 3 nM	7.5 nM	22 ± 2 nM	5.6 nM	+	+	22%	1%	12%		8 to 12%		
O=C1CC[C@@]2(O)[C@H]3Cc4ccc(OS(=O)(=O)O)c5c4[C@@]2(CCN3CC2CC2)[C@H]1O5 [naltrexone-3-sulfate]			2200 nM	550 nM	1540 nM	385 nM									
O=C1CC[C@@]2(O)[C@H]3Cc4ccc(OP(=O)(O)OP(=O)(O)OP(=O)(O)O)c5c4[C@@]2(CCN3CC2CC2)[C@H]1O5 [naltrexone-3-triphosphate]	+		15 ± 1.4 nM	3.8 nM	5.2 ± 0.4 nM	1.3 nM	+	+	22%	0%	0%		65%		
